Experiments:
[1] = target: T1, ADAE (Agrobacterium sp. SUL3 D-allulose 3-epimerase) (Agrobacterium sp. SUL3, UniProt Z9QCC6USU8); assay: X-ray crystal structure of complex; assay type: binding; conditions: active site with Mg2+; PDB id not printed in main text
T1 construct: homotetramer; each subunit an (alpha/beta)8 barrel with Mg2+ site
T1 sequence (Z9QCC6USU8 1-284): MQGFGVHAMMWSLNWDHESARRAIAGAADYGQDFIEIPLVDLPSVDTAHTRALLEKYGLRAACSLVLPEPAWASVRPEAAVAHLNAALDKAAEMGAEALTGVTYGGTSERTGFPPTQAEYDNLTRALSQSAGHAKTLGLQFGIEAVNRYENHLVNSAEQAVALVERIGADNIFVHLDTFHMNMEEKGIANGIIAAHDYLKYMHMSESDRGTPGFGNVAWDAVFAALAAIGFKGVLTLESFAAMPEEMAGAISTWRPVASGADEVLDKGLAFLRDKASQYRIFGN

[2] = target: Agrobacterium sp. SUL3 D-allulose 3-epimerase (Agrobacterium sp. SUL3); assay: crystal structure; X-ray crystal structures of ADAE alone and in complex with D-fructose or D-allulose; oligomer seen in the structure

| Compound | X-ray crystal structure of complex [1] | stoichiometry N [2] |
| --- | --- | --- |
| O=C(CO)[C@H](O)[C@H](O)[C@H](O)CO [D-allulose] | X-ray crystal structures of ADAE alone and in complex with different ligands, including D‐fructose and D‐allulose |  |
| OCC1(O)OC[C@@H](O)[C@@H](O)[C@@H]1O (stereo partly drawn) [D-fructose] | X-ray crystal structures of ADAE alone and in complex with different ligands, including D‐fructose and D‐allulose |  |
| Agrobacterium sp. SUL3 D-allulose 3-epimerase (enzyme) |  | 4 |
